Data taken from patent US9512139B2, “Conformationally constrained, fully synthetic macrocyclic compounds” (POLYPHOR AG, priority 2009, dated 2016).

Biological target: T1, Prostaglandin F (FP) Receptor (Homo sapiens, UniProt P43088)
T1 construct: host or cells: Ca2+ optimized hematopoietic cell lines (rat)
Assay: Ca2+ assay (FLIPR) for the GPCR prostaglandin F (FP) receptor, agonist and antagonist mode
Assay type: cell-based
Method: Biological and Pharmacological Methods 1. Ca^2+ Assays for the GPCRs Motilin Receptor, Prostaglandin F (FP) Receptor, 5-hydroxytryptamine 2B (5-HT2B) Receptor, and Purinoreceptor P2Y1
Assays were performed using on a FLIPR^TETRA fluorometric imaging plate reader (Molecular Devices) with ScreenWorks Version 2 (Molecular Devices) as device operating and data analysis software.
Dose dependent agonist and antagonist activities were determined. Percentage activation and percentage inhibition values were determined.
Percentage activation was determined upon initial addition of the sample compounds followed by 10 minutes incubation at 25° C. Following compound incubation, reference agonists were added at EC80 to determine percentage inhibition.
Reference agonists were purchased from reputable commercial vendors and prepared according to each ligand's specifications. All handling of ligands were done to ensure proper control throughout the experiments.
Example compounds were weighed on a Microbalance (Mettler MX5) and dissolved in 100% DMSO to a final concentration of 2.5 mM and subsequently diluted into the assay buffer.
The Assay buffer was a supplemented HBSS (Hank's Balanced Salt Solution). HBSS was supplemented with 20 mM HEPES (4-(2-hydroxyethyl)-piperazin-1-ethansulfonic acid) and 2.5 mM Probenecid (Sigma P8761).
GPCR assays were performed using Ca^2+ optimized hematopoietic cell lines (rat) with cultures never exceeding 90% confluency. Cells were harvested and seeded (from cultures at less than 90% confluency) at 50000 cells/well for a 96-well plate (12500 cells/well for 384). After seeding, the assay plates were incubated for forty-five (45) minutes at room temperature. After room temperature incubation, the assay plates were incubated at 37° C. 5% CO2 for 24 hours prior to assaying.
All GPCR assays were performed using Fluo-8 Ca^2+ dye. Ca^2+ dye was prepared at 1× dye concentration in GPCR assay buffer. After 24 hours of incubation, cells were washed with GPCR assay buffer, and then Ca^2+-dye (100 μL/well) was added.
The plates were incubated for 90 minutes at 30° C. 5% CO2 prior to FLIPR assay.
Compound plates were prepared to add 50 μL/well during the agonist assay mode. During the FLIPR assay, 50 μL/well from the compound plate was diluted 3-fold into the existing 100 μL/well from the dye loading step. Therefore all compounds were prepared as 3× the final concentration desired in the assay.
After completion of the first single addition assay run, assay plate was removed from the FLIPR Tetra and placed at 25° C. for seven (7) minutes before antagonist assay.
Using the EC80 values determined during the agonist assay, all pre-incubated sample compound and reference antagonist (if applicable) wells were stimulated at the EC80 of the reference agonist. As reference ligands for the first three assays their obvious natural ligands motilin, prostaglandin F2α, and serotonin (5-HT, 5-Hydroxytryptamine) were used; and for the P2Y1 assay 2MeSATP (2-methyl-thio-adeno-sine 5′-triphosphate, i.e. (2R,3S,4R)-5-(6-amino-2-methylsulfanyl-purin-9-yl)-3,4-dihydroxy-tetrahydrofuran-2-yl]methyl (hydroxy-phosphonooxy-phosphoryl)hydrogen phosphate) was applied.
After the addition of the reference agonist fluorescence was monitored for 180 sec using FLIPR Tetra.
Data Analysis and Results:
From the FLIPR data, with negative control correction enabled, the maximum statistic for each well was exported and percentage activation relative to Emax control was calculated.

T1 sequence (P43088 whole entry): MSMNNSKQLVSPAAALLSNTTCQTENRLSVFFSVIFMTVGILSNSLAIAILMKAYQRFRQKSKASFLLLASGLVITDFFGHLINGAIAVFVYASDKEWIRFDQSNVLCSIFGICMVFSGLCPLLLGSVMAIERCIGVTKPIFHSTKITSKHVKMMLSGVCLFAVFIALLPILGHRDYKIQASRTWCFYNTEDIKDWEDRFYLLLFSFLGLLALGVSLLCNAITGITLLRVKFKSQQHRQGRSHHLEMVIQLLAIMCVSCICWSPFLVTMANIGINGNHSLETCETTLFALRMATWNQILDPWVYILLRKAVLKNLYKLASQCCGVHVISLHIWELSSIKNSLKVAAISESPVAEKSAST

| Structure (SMILES) | inhibition at 10 µM [%] | IC50 [nM] |
| --- | --- | --- |
| CN1CCC[C@H](NC(=O)C(c2ccccc2)c2ccccc2)C(=O)N2C[C@@H](NC(=O)Cc3ccc(-c4ccccc4)cc3)C[C@H]2COc2cccc(c2)C1=O [Ex. 547, N-[(4S,6S,10S)-6-[(2-[1,1′-biphenyl]-4-ylacetyl)amino]-14-methyl-9,15-dioxo-2-oxa-8,14-diazatricyclo[14.3.1.0^4,8]icosa-1(20),16,18-trien-10-yl]-2,2-diphenylacetamide] | 47 | – |
| CCCCCC/C=C/CC(=O)N[C@H]1CCCN(C)C(=O)c2cccc(c2)OC[C@@H]2C[C@H](NC(=O)Cc3ccc4ccccc4c3)CN2C1=O [Ex. 518, (E)-N-[(4S,6S,10S)-14-methyl-6-{[2-(2-naphthyl)acetyl]amino}-9,15-dioxo-2-oxa-8,14-diazatricyclo[14.3.1.0^4,8]icosa-1(20),16,18-trien-10-yl]-3-decenamide] | 80 | 490 |
| CN1CCC[C@H](NC(=O)Cc2ccc(-c3ccccc3)cc2)C(=O)N2C[C@@H](NC(=O)Cc3ccc4ccccc4c3)C[C@H]2COc2cccc(c2)C1=O [Ex. 522, 2-[1,1′-biphenyl]-4-yl-N-[(4S,6S,10S)-14-methyl-6-{[2-(2-naphthyl)acetyl]amino}-9,15-dioxo-2-oxa-8,14-diazatricyclo[14.3.1.0^4,8]icosa-1(20),16,18-trien-10-yl]acetamide] | 95 | 350 |
| CN1CCC[C@H](NC(=O)Cc2cccc3ccccc23)C(=O)N2C[C@@H](NC(=O)C(c3ccccc3)c3ccccc3)C[C@H]2COc2cccc(c2)C1=O [Ex. 549, N-[(4S,6S,10S)-14-methyl-10-{[2-(1-naphthyl)acetyl]amino}-9,15-dioxo-2-oxa-8,14-diazatricyclo[14.3.1.0^4,8]icosa-1(20),16,18-trien-6-yl]-2,2-diphenylacetamide] | 62 | – |
| CCCCCCCCCC(=O)N[C@H]1C[C@H]2COc3cccc(c3)C(=O)N(C)CCC[C@H](NC(=O)Cc3ccc4ccccc4c3)C(=O)N2C1 [Ex. 542, N-[(4S,6S,10S)-14-methyl-10-{[2-(2-naphthyl)acetyl]amino}-9,15-dioxo-2-oxa-8,14-diazatricyclo[14.3.1.0^4,8]icosa-1(20),16,18-trien-6-yl]decanamide] | 74 | – |
| CCCCCCCCCC(=O)N[C@H]1CCCN(C)C(=O)c2cccc(c2)OC[C@@H]2C[C@H](NC(=O)Cc3ccc4ccccc4c3)CN2C1=O [Ex. 504, N-[(4S,6S,10S)-14-methyl-6-{[2-(2-naphthyl)acetyl]amino}-9,15-dioxo-2-oxa-8,14-diazatricyclo[14.3.1.0^4,8]icosa-1(20),16,18-trien-10-yl]decanamide] | 62 | 441 |
| CN1CCC[C@H](NC(=O)Cc2ccc3ccccc3c2)C(=O)N2C[C@@H](NC(=O)Oc3ccccc3)C[C@H]2COc2cccc(c2)C1=O [Ex. 539, phenyl N-[(4S,6S,10S)-14-methyl-10-{[2-(2-naphthyl)acetyl]amino}-9,15-dioxo-2-oxa-8,14-diazatricyclo[14.3.1.0^4,8]icosa-1(20),16,18-trien-6-yl]carbamate] | 59 | – |
| CN1CCC[C@H](NC(=O)Cc2ccc3ccccc3c2)C(=O)N2C[C@@H](NC(=O)Nc3ccc(N(C)C)cc3)C[C@H]2COc2cccc(c2)C1=O [Ex. 538, N-[(4S,6S,10S)-6-({[4-(dimethylamino)anilino]carbonyl}amino)-14-methyl-9,15-dioxo-2-oxa-8,14-diazatricyclo[14.3.1.0^4,8]icosa-1(20),16,18-trien-10-yl]-2-(2-naphthyl)acetamide] | 80 | – |
| CN1CCC[C@H](NC(=O)Cc2ccc(-c3ccccc3)cc2)C(=O)N2C[C@@H](NC(=O)C(c3ccccc3)c3ccccc3)C[C@H]2COc2cccc(c2)C1=O [Ex. 546, N-[(4S,6S,10S)-10-[(2-[1,1′-biphenyl]-4-ylacetyl)amino]-14-methyl-9,15-dioxo-2-oxa-8,14-diazatricyclo[14.3.1.0^4,8]icosa-1(20),16,18-trien-6-yl]-2,2-diphenylacetamide] | 37 | – |
| CN1CCC[C@H](NC(=O)Nc2cccc(N(C)C)c2)C(=O)N2C[C@@H](NC(=O)Cc3ccc4ccccc4c3)C[C@H]2COc2cccc(c2)C1=O [Ex. 507, N-[(4S,6S,10S)-10-({[3-(dimethylamino)anilino]carbonyl}amino)-14-methyl-9,15-dioxo-2-oxa-8,14-diazatricyclo[14.3.1.0^4,8]icosa-1(20),16,18-trien-6-yl]-2-(2-naphthyl)acetamide] | 51 | 1100 |
| CN1CCC[C@H](NC(=O)Cc2ccc3ccccc3c2)C(=O)N2C[C@@H](NC(=O)Nc3cccc(F)c3)C[C@H]2COc2cccc(c2)C1=O [Ex. 537, N-[(4S,6S,10S)-6-{[(3-fluoroanilino)carbonyl]amino}-14-methyl-9,15-dioxo-2-oxa-8,14-diazatricyclo[14.3.1.0^4,8]icosa-1(20),16,18-trien-10-yl]-2-(2-naphthyl)acetamide] | 75 | – |
| CN1CCC[C@H](NC(=O)CCCCCOCc2ccccc2)C(=O)N2C[C@@H](NC(=O)Cc3ccc4ccccc4c3)C[C@H]2COc2cccc(c2)C1=O [Ex. 521, 6-(benzyloxy)-N-[(4S,6S,10S)-14-methyl-6-{[2-(2-naphthyl)acetyl]amino}-9,15-dioxo-2-oxa-8,14-diazatricyclo[14.3.1.0^4,8]icosa-1(20),16,18-trien-10-yl]hexanamide] | 81 | 1000 |
| CN1CCC[C@H](NC(=O)Cc2ccc3ccccc3c2)C(=O)N2C[C@@H](NC(=O)Cc3cccc(Oc4ccccc4)c3)C[C@H]2COc2cccc(c2)C1=O [Ex. 541, N-[(4S,6S,10S)-14-methyl-9,15-dioxo-6-{[2-(3-phenoxyphenyl)acetyl]amino}-2-oxa-8,14-diazatricyclo[14.3.1.0^4,8]icosa-1(20),16,18-trien-10-yl]-2-(2-naphthyl)acetamide] | 65 | – |
| O=C(Cc1ccc2ccccc2c1)N[C@H]1C[C@H]2COc3cccc(c3)C(=O)NCCC[C@H](NC(=O)OCc3ccccc3)C(=O)N2C1 [Ex. 388, benzyl N-[(4S,6S,10S)-6-{[2-(2-naphthyl)acetyl]amino}-9,15-dioxo-2-oxa-8,14-diazatricyclo[14.3.1.0^4,8]icosa-1(20),16,18-trien-10-yl]carbamate] | 99 | 320 |
| CCCCCCCCCC(=O)N[C@H]1CCCNC(=O)c2cccc(c2)OC[C@@H]2C[C@H](NC(=O)Cc3ccc4ccccc4c3)CN2C1=O [Ex. 391, N-[(4S,6S,10S)-6-{[2-(2-naphthyl)acetyl]amino}-9,15-dioxo-2-oxa-8,14-diazatricyclo[14.3.1.0^4,8]icosa-1(20),16,18-trien-10-yl]decanamide] | 93 | 250 |
| CN(C)c1cccc(NC(=O)N[C@H]2C[C@H]3COc4cccc(c4)C(=O)NCCC[C@H](NC(=O)Cc4ccc5ccccc5c4)C(=O)N3C2)c1 [Ex. 386, N-[(4S,6S,10S)-6-({[3-(dimethylamino)anilino]carbonyl}amino)-9,15-dioxo-2-oxa-8,14-diazatricyclo[14.3.1.0^4,8]icosa-1(20),16,18-trien-10-yl]-2-(2-naphthyl)acetamide] | 85 | 2700 |
| CN1CCC[C@H](NC(=O)Cc2ccc3ccccc3c2)C(=O)N2C[C@@H](NC(=O)Cc3ccc4ccccc4c3)C[C@H]2COc2cccc(c2)C1=O [Ex. 186, N-[(4S,6S,10S)-14-methyl-10-{[2-(2-naphthyl)acetyl]amino}-9,15-dioxo-2-oxa-8,14-diazatricyclo[14.3.1.0^4,8]icosa-1(20),16,18-trien-6-yl]-2-(2-naphthyl)acetamide] | 53 | 1200 |
| CCCCCCCCCC(=O)N[C@H]1C[C@H]2COc3cccc(c3)C(=O)N(C)CCC[C@H](NC(=O)Cc3cccc4ccccc34)C(=O)N2C1 [Ex. 543, N-[(4S,6S,10S)-14-methyl-10-{[2-(1-naphthyl)acetyl]amino}-9,15-dioxo-2-oxa-8,14-diazatricyclo[14.3.1.0^4,8]icosa-1(20),16,18-trien-6-yl]decanamide] | 82 | – |
